Laboratory results from US12545660B2, “Crystalline forms of a farnesoid X receptor agonist” (ELI LILLY AND COMPANY, priority 2020, dated 2026).

Experiments:
[1] = target: T1, hFXR (Homo sapiens, UniProt Q96RI1); experiment: In Vitro FXR Assay (TK); format: cell-based; settings: CV-1 cells transfected with hFXR, hRXR, TK-ECRE-luc and pCMX-YFP; incubated 18 hrs; luminescence
T1 construct: expressed in transfected cells; host or cells: CV-1 cells
T1 sequence (Q96RI1 1-486): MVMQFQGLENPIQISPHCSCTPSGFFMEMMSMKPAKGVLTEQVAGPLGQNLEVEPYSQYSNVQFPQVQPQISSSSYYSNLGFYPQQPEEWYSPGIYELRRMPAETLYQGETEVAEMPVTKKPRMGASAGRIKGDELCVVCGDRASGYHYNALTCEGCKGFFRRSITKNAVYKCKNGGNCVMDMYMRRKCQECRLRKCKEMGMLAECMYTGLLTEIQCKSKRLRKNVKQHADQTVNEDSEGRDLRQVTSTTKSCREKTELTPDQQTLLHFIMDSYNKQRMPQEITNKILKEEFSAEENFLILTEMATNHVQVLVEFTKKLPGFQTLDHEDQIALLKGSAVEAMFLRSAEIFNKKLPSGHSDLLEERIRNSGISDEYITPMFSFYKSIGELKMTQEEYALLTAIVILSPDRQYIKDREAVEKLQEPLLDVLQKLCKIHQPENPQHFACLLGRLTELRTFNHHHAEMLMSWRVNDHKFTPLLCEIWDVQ
T1 sequence (P19793 1-462 partner): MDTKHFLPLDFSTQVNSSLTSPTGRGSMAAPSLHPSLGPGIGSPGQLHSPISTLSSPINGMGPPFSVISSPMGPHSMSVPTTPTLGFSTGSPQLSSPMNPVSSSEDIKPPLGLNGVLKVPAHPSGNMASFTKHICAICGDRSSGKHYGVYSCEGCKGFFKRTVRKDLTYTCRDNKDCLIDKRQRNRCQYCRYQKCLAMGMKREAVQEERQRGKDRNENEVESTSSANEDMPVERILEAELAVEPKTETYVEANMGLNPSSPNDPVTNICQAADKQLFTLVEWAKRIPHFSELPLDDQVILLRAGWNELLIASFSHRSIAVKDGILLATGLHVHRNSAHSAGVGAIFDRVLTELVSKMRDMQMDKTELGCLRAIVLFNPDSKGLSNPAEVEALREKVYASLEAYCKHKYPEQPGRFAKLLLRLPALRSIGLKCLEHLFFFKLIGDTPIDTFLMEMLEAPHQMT
Description: Example 10: In Vitro FXR Assay (TK)
CV-1 were seeded at a density of 2,000,000 cells in a T175 flask with DMEM+10% charcoal double-stripped FBS and incubated at 37° C. in 5% CO2 for 18 h (O/N).
After 18 h of incubation, the medium in the T175 flask was changed with fresh DMEM+10% charcoal super-stripped serum. In a polypropylene tube, 2500 μL OptiMEM (Life Technologies, Cat #31985-062) was combined with expression plasmids for hFXR, hRXR, TK-ECRE-luc and pCMX-YFP. The tube was then briefly vortexed and incubated at room temperature for 5 minutes. Transfection reagent (X-tremeGENE HP from Roche, Cat #06 366 236 001) was added to the OptiMEM/plasmid mixture vortexed and incubated at room temperature for 20 minutes. Following incubation, the transfection reagent/DNA mixture complex was added to cells in the T175 flask and the cells were incubated at 37° C. in 5% CO2 for 18 h (O/N).
Compound 1 was serially diluted in DMSO and added to transfected CV-1 cells. The cells were then incubated for 18 hrs. The next day cells were lysed and examined for luminescence. Compound 1 TK hFXR: EC50≤0.01 μM.

[2] = Dynamic Vapor Sorption (DVS); format: physicochemical; settings: for water content at 95% RH (DVS) / hygroscopicity (DVS): 25° C.; for water content at 95% RH (DVS): two complete sorption/desorption cycles; for hygroscopicity (DVS): DVS isotherm
Description: Sorption isotherms were obtained using a SMS DVS Intrinsic moisture sorption analyzer, controlled by DVS Intrinsic Control software v1.0.1.2 (or v1.0.1.3). The sample temperature was maintained at 25° C. by the instrument controls. The humidity was controlled by mixing streams of dry and wet nitrogen, with a total flow rate of 200 ml/min. The relative humidity (RH) was measured by a calibrated Rotronic probe (dynamic range of 1.0-100% RH), located near the sample. The weight change, (mass relaxation) of the sample as a function of % RH was constantly monitored by the microbalance (accuracy ±0.005 mg).

Row | SMILES | EC50 [1] | water content at 95% RH (DVS) [2] | hygroscopicity (DVS) [2] | changes in the XRPD pattern of post-DVS samples [2]
1 | COc1ccc(C23CCC(CN(c4cc(-c5cnn(C(C)(C)C)c5)ccn4)C(=O)[C@H]4CC[C@H](OC(=O)N5CC(O)C5)CC4)(CC2)CC3)cc1C [Compound 1, 4-((4-(1-(tert-butyl)-1H-pyrazol-4-yl)pyridin-2-yl)((4-(4-methoxy-3-methylphenyl)bicyclo[2.2.2]octan-1-yl)methyl)carbamoyl)cyclohexyl 3-hydroxyazetidine-trans-1-carboxylate] | ≤ 10 nM |  |  | 
2 | COc1ccc(C23CCC(CN(c4cc(-c5cnn(C(C)(C)C)c5)ccn4)C(=O)[C@H]4CC[C@H](OC(=O)N5CC(O)C5)CC4)(CC2)CC3)cc1C [Form 1 of Compound 1, 4-((4-(1-(tert-butyl)-1H-pyrazol-4-yl)pyridin-2-yl)((4-(4-methoxy-3-methylphenyl)bicyclo[2.2.2]octan-1-yl)methyl)carbamoyl)cyclohexyl 3-hydroxyazetidine-trans-1-carboxylate] |  | 1.2% | only slightly hygroscopic | no significant changes
3 | COc1ccc(C23CCC(CN(c4cc(-c5cnn(C(C)(C)C)c5)ccn4)C(=O)[C@H]4CC[C@H](OC(=O)N5CC(O)C5)CC4)(CC2)CC3)cc1C [Form 2 of Compound 1, 4-((4-(1-(tert-butyl)-1H-pyrazol-4-yl)pyridin-2-yl)((4-(4-methoxy-3-methylphenyl)bicyclo[2.2.2]octan-1-yl)methyl)carbamoyl)cyclohexyl 3-hydroxyazetidine-trans-1-carboxylate] |  | 1.0% | only slightly hygroscopic | no significant changes
4 | COc1ccc(C23CCC(CN(c4cc(-c5cnn(C(C)(C)C)c5)ccn4)C(=O)[C@H]4CC[C@H](OC(=O)N5CC(O)C5)CC4)(CC2)CC3)cc1C [Form 3 of Compound 1, 4-((4-(1-(tert-butyl)-1H-pyrazol-4-yl)pyridin-2-yl)((4-(4-methoxy-3-methylphenyl)bicyclo[2.2.2]octan-1-yl)methyl)carbamoyl)cyclohexyl 3-hydroxyazetidine-trans-1-carboxylate] |  | 1.2% | only slightly hygroscopic | no significant changes
5 | COc1ccc(C23CCC(CN(c4cc(-c5cnn(C(C)(C)C)c5)ccn4)C(=O)[C@H]4CC[C@H](OC(=O)N5CC(O)C5)CC4)(CC2)CC3)cc1C [Form 4 of Compound 1, 4-((4-(1-(tert-butyl)-1H-pyrazol-4-yl)pyridin-2-yl)((4-(4-methoxy-3-methylphenyl)bicyclo[2.2.2]octan-1-yl)methyl)carbamoyl)cyclohexyl 3-hydroxyazetidine-trans-1-carboxylate] |  | 1.9% | only slightly hygroscopic | no significant changes
